Data on eleven compounds can be found in patent US11986471B2, “Compounds and methods of use” (Tango Therapeutics, Inc., priority 2018, dated 2024).

A word on the IC50: it is the concentration at which inhibition is half-maximal.

The target of test [1] is T1, PRMT5 (Homo sapiens, UniProt O14744).
T1 construct: purchased Viva (custom protein)
Description: PRMT5 IC50 assay in the presence of SAM as cofactor. It counts as biochemical. In short, it runs like this: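 Results given as IC50 (μM), from which Ki follows by dividing by 1.5 in the SAM condition or by 13.5 in the MTA condition. The ratio of SAM Ki to MTA Ki indicates MTA-cooperative preference.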

Test [2] concerns the target T1, PRMT5. As to the kind of experiment: PRMT5 IC50 assay with no cofactor. It counts as biochemical. The method, boiled down:
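Cofactor-free, SAM and MTA formats; IC50 μM; Ki = IC50/1.5 for SAM, IC50/13.5 for MTA.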

Test [3] addresses T1, PRMT5. Description: PRMT5 IC50 assay in the presence of MTA as cofactor. Format: biochemical. The note with it: for IC50: PRMT5, MTA as cofactor. The method, boiled down:
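Ki conversion: SAM arm, Ki=IC50/1.5; MTA arm, Ki=IC50/13.5. No-cofactor arm reported as IC50 only. Selectivity expressed as Ki(SAM)/Ki(MTA).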

The next test has as its system HAP1 MTAP-intact. Description: SDMA in-cell western assay, HAP1 MTAP-intact cell line. It counts as cell-based. The note with it: Homo sapiens. In short, it runs like this: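 Symmetric dimethylarginine (SDMA) levels were measured by in-cell western in an isogenic HAP1 pair, one expressing endogenous MTAP and one MTAP-null, and IC50 values were derived for each line. Compounds whose IC50 ratio between the lines is 3-fold or more are classed as MTAP-selective.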

In another test the test system is HAP1 MTAP-deleted. As to the kind of experiment: SDMA in-cell western assay, HAP1 MTAP-deleted cell line. Format: cell-based. The note with it: for IC50: Homo sapiens, HAP1 MTAP-deleted cell line; for MTAP Intact/Deleted Ratio: IC50 ratio HAP1 MTAP-intact / HAP1 MTAP-deleted. In short, it runs like this:
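Symmetric dimethylarginine (SDMA) levels were measured by in-cell western in MTAP-null HAP1 cells, one half of an MTAP-isogenic pair whose partner line expresses endogenous MTAP. Compound potency is reported as IC50.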

The mark [4] stands for this setting: ratio between Ki in the presence of SAM and Ki in the presence of MTA.
The mark [5] stands for this setting: ratio between the Ki in the presence of SAM and the Ki in the presence of MTA.

T1 sequence (O14744 whole entry): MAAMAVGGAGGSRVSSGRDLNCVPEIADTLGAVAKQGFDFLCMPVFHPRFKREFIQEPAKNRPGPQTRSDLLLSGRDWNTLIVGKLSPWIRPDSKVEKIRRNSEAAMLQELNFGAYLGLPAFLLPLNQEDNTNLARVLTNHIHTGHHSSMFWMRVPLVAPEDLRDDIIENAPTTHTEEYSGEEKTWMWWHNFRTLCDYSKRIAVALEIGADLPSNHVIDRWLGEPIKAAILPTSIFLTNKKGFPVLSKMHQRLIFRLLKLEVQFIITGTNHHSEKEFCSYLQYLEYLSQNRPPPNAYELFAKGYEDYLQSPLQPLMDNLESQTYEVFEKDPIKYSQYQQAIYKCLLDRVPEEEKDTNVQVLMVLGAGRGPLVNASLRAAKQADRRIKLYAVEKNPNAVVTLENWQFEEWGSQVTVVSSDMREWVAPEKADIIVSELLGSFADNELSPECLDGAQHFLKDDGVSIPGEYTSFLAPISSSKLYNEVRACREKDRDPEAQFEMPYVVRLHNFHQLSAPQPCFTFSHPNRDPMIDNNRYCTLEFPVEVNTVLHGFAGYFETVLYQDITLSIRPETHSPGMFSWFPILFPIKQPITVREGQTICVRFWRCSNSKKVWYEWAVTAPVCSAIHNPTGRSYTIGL
T1 sequence (Q9BQA1 whole entry partner): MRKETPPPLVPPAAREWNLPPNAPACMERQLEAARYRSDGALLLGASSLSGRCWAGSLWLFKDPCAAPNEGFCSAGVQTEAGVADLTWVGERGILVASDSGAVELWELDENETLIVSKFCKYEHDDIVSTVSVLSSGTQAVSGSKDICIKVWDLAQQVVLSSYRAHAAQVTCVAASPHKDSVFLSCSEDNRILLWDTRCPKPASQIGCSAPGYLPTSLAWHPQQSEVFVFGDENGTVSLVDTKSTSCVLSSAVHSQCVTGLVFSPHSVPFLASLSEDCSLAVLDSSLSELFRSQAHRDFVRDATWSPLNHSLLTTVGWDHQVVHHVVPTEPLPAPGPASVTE

With `O=C(NC[C@H](O)CN1CCc2c(ccc(OCc3cnco3)c2Cl)C1)c1ccnc(NC2CCCC2)c1` [Compound 382, (S)—N-(3-(5-chloro-6-(oxazol-5-ylmethoxy)-3,4-dihydroisoquinolin-2(1H)-yl)-2-hydroxypropyl)-2-(cxclopentylamino)isonicotinamide], the 50% inhibitory concentration (IC50) was 0.05 to 0.5 µM at PRMT5 [1]; 0.5 to 5 µM on PRMT5 [2] (read-out: No Co-factor IC50); 0.05 to 0.5 µM on PRMT5 [3]; not below 10 µM in the test with HAP1 MTAP-intact; not below 10 µM in the test with HAP1 MTAP-deleted. In addition, on PRMT5 [3] (setting [4]), the “SAM/MTA Ratio” value was “A (a Ki ratio greater than or equal to 10 fold between the Ki in the presence of SAM and the Ki in the presence of MTA)”. Also, the “MTAP Intact/Deleted Ratio” value with HAP1 MTAP-deleted is “C* (an IC50 ratio of less than 3 fold between the IC50 in the HAP1 MTAP-intact cell line and the HAP1 MTAP-deleted cell line)”.

Regarding `CC(C)(C)N1CCN(c2cc(C(=O)NC[C@H](O)CN3CCc4cc(OCc5cnco5)ccc4C3)cc(NC3CCC3)n2)CC1` [Compound 306, (S)-2-(4-(tert-butyl)piperazin-1-yl)-6-(cyclobutylamino)-N-(2-hydroxy-3-(6-(oxazol-5-ylmethoxy)-3N-dihydroisoquinolin-2(1H)-yl)propyl)isonicotinamide], the half-maximal inhibitory concentration (IC50) was 0.05 to 0.5 µM at PRMT5 [1]; 0.5 to 5 µM on PRMT5 [2] (read-out: No Co-factor IC50); 0.05 to 0.5 µM on PRMT5 [3]; 1 to 10 µM in the test on HAP1 MTAP-intact; not below 10 µM with HAP1 MTAP-deleted. Also, the “SAM/MTA Ratio” value at PRMT5 [3] (setting [4]) was “A (a Ki ratio greater than or equal to 10 fold between the Ki in the presence of SAM and the Ki in the presence of MTA)”. Moreover, the “MTAP Intact/Deleted Ratio” value in the test on HAP1 MTAP-deleted is “C* (an IC50 ratio of less than 3 fold between the IC50 in the HAP1 MTAP-intact cell line and the HAP1 MTAP-deleted cell line)”.

For the compound `CC(=O)N1CCC(Nc2cc(C(=O)NC[C@H](O)CN3CCc4c(ccc(OCc5conc5C)c4Cl)C3)ncn2)CC1` [Compound 251, (S)-6-((1-acetylpiperidin-4-yl)amino)-N-(3-(5-chloro-6-((3-methylisoxazol-4-yl)methoxy)-3N-dihydroisoquinolin-2(1H)-yl)-2-hydroxypropyl)pyrimidine-4-carboxamide], the concentration for half-maximal inhibition (IC50) on PRMT5 [1] is 0.5 to 5 µM; on PRMT5 [2] (read-out: No Co-factor IC50) it was not below 5 µM; at PRMT5 [3], 0.5 to 5 µM; in the test on HAP1 MTAP-intact it was not below 10 µM; in the test with HAP1 MTAP-deleted, not below 10 µM. In the test with HAP1 MTAP-deleted, the “MTAP Intact/Deleted Ratio” value is “C* (an IC50 ratio of less than 3 fold between the IC50 in the HAP1 MTAP-intact cell line and the HAP1 MTAP-deleted cell line)”.

With `Cc1ncoc1COc1ccc2c(c1)CCN(C[C@@H](O)CNC(=O)c1cc(NC3CC4(CCC4)C3)nc(N3CCN(C(=O)C4CC4)CC3)c1)C2` [Compound 610, (S)-2-(4-(cyclopropanecarbonyl)piperazin-1-yl)-N-(2-hydroxy-3-(6-((4-methyloxazol-5-yl)methoxy)-3,4-dihydroisoquinolin-2(1H)-yl)propyl)-6-(spiro[3.3]heptan-2-ylamino)isonicotinamide], the IC50 is 0.05 to 0.5 µM on PRMT5 [1]; 0.05 to 0.5 µM at PRMT5 [2]; less than 0.05 µM at PRMT5 [3]; 1 to 10 µM with HAP1 MTAP-intact; 1 to 10 µM in the test with HAP1 MTAP-deleted. In addition, at PRMT5 [3] (setting [5]), the “SAM/MTA Ratio” value was “A (a Ki ratio greater than or equal to 10 fold between the Ki in the presence of SAM and the Ki in the presence of MTA)”. Besides, the “MTAP Intact/Deleted Ratio” value with HAP1 MTAP-deleted is “C* (an IC50 ratio of less than 3 fold between the IC50 in the HAP1 MTAP-intact cell line and the HAP1 MTAP-deleted cell line)”.

For `CCC(=O)N1CC(Nc2cc(C(=O)NC[C@H](O)CN3CCc4c(ccc(OCc5cnco5)c4C)C3)ccn2)C1` [Compound 495, (S)—N-(2-hydroxy-3-(5-methyl-6-(oxazol-5-ylmethoxy)-3,4-dihydroisoquinolin-2(1H)-yl)propyl)-2-((1-propionylazetidin-3-yl)amino)isonicotinamide], the IC50 on PRMT5 [1] is 0.05 to 0.5 µM; against PRMT5 [2], 0.5 to 5 µM; on PRMT5 [3] it was 0.05 to 0.5 µM; with HAP1 MTAP-intact, not below 10 µM; with HAP1 MTAP-deleted, not below 10 µM. Besides, the “SAM/MTA Ratio” value at PRMT5 [3] (setting [5]) was “A (a Ki ratio greater than or equal to 10 fold between the Ki in the presence of SAM and the Ki in the presence of MTA)”. Besides, the “MTAP Intact/Deleted Ratio” value in the test on HAP1 MTAP-deleted was “C* (an IC50 ratio of less than 3 fold between the IC50 in the HAP1 MTAP-intact cell line and the HAP1 MTAP-deleted cell line)”.

For the compound `CC(=O)N1CC(Nc2cc(C(=O)NC[C@H](O)CN3CCc4cc(OCc5ocnc5C)c(F)cc4C3)nc(N3CCCCC3)n2)C1` [Compound 579, 6-[(1-acetylazetidin-3-yl)amino]-N-[(2S)-3-[7-fluoro-6-[(4-methyloxazol-5-yl)methoxy]-3,4-dihydro-1H-isoquinolin-2-yl]-2-hydroxy-propyl]-2-(1-piperidyl)pyrimidine-4-carboxamide], the IC50 is 0.05 to 0.5 µM on PRMT5 [1]; 0.05 to 0.5 µM at PRMT5 [2]; 0.05 to 0.5 µM at PRMT5 [3]; 1 to 10 µM in the test with HAP1 MTAP-intact; less than 1 µM in the test with HAP1 MTAP-deleted. Moreover, the “SAM/MTA Ratio” value at PRMT5 [3] (setting [5]) is “A (a Ki ratio greater than or equal to 10 fold between the Ki in the presence of SAM and the Ki in the presence of MTA)”. Besides, the “MTAP Intact/Deleted Ratio” value with HAP1 MTAP-deleted is “A* (an IC50 ratio greater than or equal to 10 fold between the IC50 in the HAP1 MTAP-intact cell line and the HAP1 MTAP-deleted cell line)”.

On to `Cc1c(OCc2cnco2)ccc2c1CCN(C[C@@H](O)CNC(=O)c1cc(NC3CCCCC3)ncn1)C2` [Compound 436, 6-(cyclohexylamino)-N-[(2S)-2-hydroxy-3-{5-methyl-6-[(1,3-oxazol-5-yl)methoxy]-1,2,3,4-tetrahydroisoquinolin-2-yl}propyl]pyrimidine-4-carboxamide], for which the concentration for half-maximal inhibition (IC50) on PRMT5 [1] was 0.5 to 5 µM; on PRMT5 [2] it was not below 5 µM; at PRMT5 [3], 0.5 to 5 µM; in the test with HAP1 MTAP-intact, not below 10 µM; in the test on HAP1 MTAP-deleted it was not below 10 µM. The “SAM/MTA Ratio” value on PRMT5 [3] (setting [5]) was “A (a Ki ratio greater than or equal to 10 fold between the Ki in the presence of SAM and the Ki in the presence of MTA)”. In addition, in the test with HAP1 MTAP-deleted, the “MTAP Intact/Deleted Ratio” value is “C* (an IC50 ratio of less than 3 fold between the IC50 in the HAP1 MTAP-intact cell line and the HAP1 MTAP-deleted cell line)”.

With `Cc1ncoc1COc1ccc2c(c1)CCN(C[C@@H](O)CNC(=O)c1cc(NC3CCC3)ncc1Cl)C2` [Compound 607, 5-chloro-2-(cyclobutylamino)-N-[(2S)-2-hydroxy-3-[6-[(4-methyloxazol-5-yl)methoxy]-3,4-dihydro-1H-isoquinolin-2-yl]propyl]pyridine-4-carboxamide], the IC50 was 0.05 to 0.5 µM on PRMT5 [1]; not below 5 µM on PRMT5 [2]; 0.05 to 0.5 µM at PRMT5 [3]; less than 1 µM with HAP1 MTAP-intact; less than 1 µM in the test on HAP1 MTAP-deleted. Further, the “SAM/MTA Ratio” value on PRMT5 [3] (setting [5]) was “A (a Ki ratio greater than or equal to 10 fold between the Ki in the presence of SAM and the Ki in the presence of MTA)”. Further, in the test on HAP1 MTAP-deleted, the “MTAP Intact/Deleted Ratio” value was “C* (an IC50 ratio of less than 3 fold between the IC50 in the HAP1 MTAP-intact cell line and the HAP1 MTAP-deleted cell line)”.

Take `CCN(C)c1cc(C(=O)NC[C@H](O)CN2CCc3cc(OCc4cnco4)ccc3C2)cc(NC2CCC2)n1` [Compound 438, (S)-2-(cyclobutylamino)-6-(ethyl(methyl)amino)-N-(2-hydroxy-3-(6-(oxazol-5-ylmethoxy)-3,4-dihydroisoquinolin-2(1H)-yl)propyl)isonicotinamide]: the IC50 is 0.5 to 5 µM on PRMT5 [1]; not below 5 µM on PRMT5 [2]; 0.05 to 0.5 µM at PRMT5 [3]; 1 to 10 µM in the test with HAP1 MTAP-intact; 1 to 10 µM with HAP1 MTAP-deleted. Moreover, the “SAM/MTA Ratio” value at PRMT5 [3] (setting [5]) was “A (a Ki ratio greater than or equal to 10 fold between the Ki in the presence of SAM and the Ki in the presence of MTA)”. Further, the “MTAP Intact/Deleted Ratio” value with HAP1 MTAP-deleted was “C* (an IC50 ratio of less than 3 fold between the IC50 in the HAP1 MTAP-intact cell line and the HAP1 MTAP-deleted cell line)”.

On to `CC(C)(C)C(=O)N1CCC(Nc2cc(C(=O)NC[C@H](O)CN3CCc4c(ccc(OCc5cnco5)c4Cl)C3)ccn2)CC1` [Compound 432, (S)—N-(3-(5-chloro-6-(oxazol-5-ylmethoxy)-3,4-dihydroisoquinolin-2(1H)-yl)-2-hydroxypropyl)-2-((1-pivaloylpiperidin-4-yl)amino)isonicotinamide], for which the IC50 on PRMT5 [1] was 0.05 to 0.5 µM; on PRMT5 [2] it was 0.5 to 5 µM; at PRMT5 [3] it was 0.05 to 0.5 µM; in the test with HAP1 MTAP-intact, not below 10 µM; in the test with HAP1 MTAP-deleted it was 1 to 10 µM. For the same compound, the “SAM/MTA Ratio” value on PRMT5 [3] (setting [5]) is “A (a Ki ratio greater than or equal to 10 fold between the Ki in the presence of SAM and the Ki in the presence of MTA)”. In addition, in the test on HAP1 MTAP-deleted, the “MTAP Intact/Deleted Ratio” value is “B* (an IC50 ratio greater than or equal to 3 fold but lower than 10 fold between the IC50 in the HAP1 MTAP-intact cell line and the HAP1 MTAP-deleted cell line)”.

On to `COc1cc(C(=O)NC[C@H](O)CN2CCc3c(ccc(OCc4ocnc4C)c3C)C2)cc(NC2CCN(C(C)=O)CC2)n1` [Compound 604, (S)-2-((1-acetylpiperidin-4-yl)amino)-N-(2-hydroxy-3-[5-methyl-6-((4-methyloxazol-5-yl)methoxy)-3,4-dihydroisoquinolin-2(1H)-yl)propyl)-6-methoxyisonicotinamide], for which the IC50 at PRMT5 [1] is 0.05 to 0.5 µM; against PRMT5 [2] it was 0.5 to 5 µM; on PRMT5 [3], 0.05 to 0.5 µM; in the test with HAP1 MTAP-intact, 1 to 10 µM; in the test on HAP1 MTAP-deleted, less than 1 µM. The “SAM/MTA Ratio” value at PRMT5 [3] (setting [5]) is “A (a Ki ratio greater than or equal to 10 fold between the Ki in the presence of SAM and the Ki in the presence of MTA)”. Moreover, the “MTAP Intact/Deleted Ratio” value in the test with HAP1 MTAP-deleted is “A* (an IC50 ratio greater than or equal to 10 fold between the IC50 in the HAP1 MTAP-intact cell line and the HAP1 MTAP-deleted cell line)”.
